Experimental data as given in patent US9808444B2 (BioHealthonomics Inc., priority 2012, dated 2017).

Key:
migraine headaches = conditions: one subject, subcutaneous, Table 5 regimen
[1] = test system: headache / migraine attack; conditions: cited from earlier work
migraine attacks [2] = conditions: subcutaneous, twice weekly, 1 μg (0.1 mL) increasing to 10 μg (1.0 mL) over 12 weeks; cited from earlier work
migraine attacks [3] = conditions: subcutaneous 1-10 ng twice a week vs oral sodium valproate 500 mg daily, cited from earlier work
migraine attacks [4] = conditions: cited from earlier work
[5] = migraine subjects, intravenous, 0.5 mg/kg per minute for 20 min
[6] = doses of 1 to 3 ng twice a week, P<0.0001

Compound: NCCc1c[nH]cn1 [histamine, 2-(1H-imidazol-4-yl)ethanamine]
- intensity of migraines (migraine headaches): drastically reduced
- quality of life (migraine headaches): Drastically improved
- side effects associated with the regimen (migraine headaches): no histamine-induced headaches
- frequency of migraines after the dosing regimen (migraine headaches; before the regimen about 3-5 migraines per week): ~1 migraine every 2 months
- side effect after the infusion [1, 5]: delayed migraine attack
- side effect during the infusion [1, 5]: immediate headache
- decrease in length of migraine attacks (migraine attacks [2]): 45%
- decrease in pain intensity (migraine attacks [2]): 51%
- decrease in painkiller use (migraine attacks [2]): 52%
- reduction of headache frequency (migraine attacks [2]): 50%
- MIDAS versus sodium valproate (migraine attacks [3]): No difference
- frequency of attacks versus sodium valproate (migraine attacks [3]): No difference
- analgesic intake versus sodium valproate (migraine attacks [3]; weeks 4, 8, 12, P<0.001): significantly greater reduction
- intensity of migraine attacks versus sodium valproate (migraine attacks [3]; weeks 4, 8, 12, P<0.001): significantly greater reduction

Compound: CNCCc1c[nH]cn1 [N^α-methylhistamine]
- adverse side effects (migraine attacks [4]; doses greater than 3 ng): intense headache
- duration of migraine attacks (migraine attacks [4]; [6]): significantly reduced
- frequency of migraine attacks (migraine attacks [4]; [6]): significantly reduced
- intensity of migraine attacks (migraine attacks [4]; [6]): significantly reduced
- need for rescue analgesics (migraine attacks [4]; [6]): significantly reduced

Compound: COc1ccc(CN(CCN(C)C)c2ccccn2)cc1 [mepyramine]
- effect of pre-treatment on histamine-induced headache and delayed migraine attack ([1]; pre-treatment before intravenous histamine in migraine subjects): abolished
